Patent US10954269B2, “Anti-inflammatory tripeptides” (Dr. August Wolff Gmbh & Co. KG Arzneimittel, priority 2013, dated 2021)
[ ]: non-standard residue; d: D form. Aib = CC(C)(N)C(=O)O

Key:
[1] = system: primary human T cells; assay: Gene expression of pro-inflammatory cytokines (RT-qPCR) in primary human T cells; format: cell-based; settings: PMA/Ionomycin, 10^−7 M, 10^−9 M and 10^−11 M
Description: (§1) Cells were activated with PMA/Ionomycin and treated with PBS, α-MSH, K(D)PT and Examples 3, 8 and 9, respectively, at a concentration of 10^−9 M. Values are normalized to β-actin and are shown relative to the gene expression in PBS-stimulated cells.
(§2) Primary T-cells were isolated from peripheral blood from healthy volunteers and from secondary lymphatic organs from naïve C57BL/6 mice, respectively. The cells were stimulated with phorbol-12-myristate-13-acetate (PMA)/Ionomycin and interferon-gamma (IFN-γ), respectively, for 48 h to activate the cells. The activated cells release pro-inflammatory cytokines. In parallel a human (HaCaT) keratinocyte cell line was activated with PMA/Ionomycin and IFN-γ, respectively, too. […] At the same time release of anti-inflammatory IL-10 was inhibited. Two days after addition of PMA/Ionomycin and IFN-γ, respectively, the induction of IL-1 secretion was determined in the supernatant for proving that the cells are activated. […] The anti-inflammatory properties of the tripeptides were determined 48 h and 72 h following stimulation. A 13-plex-system based FACS analysis was used for showing the reduced secretion of pro-inflammatory cytokines in the supernatant. Data for IL-1, IL-2, IL-6, IL-12p70 IL-17, IFN-γ and TNF-α are considered to be most relevant. Thus, analysis of the anti-inflammatory properties of the tripeptides is preferably based on the results obtained for these analytes. […] Using this method the gene expression of pro-inflammatory markers like IL-6, IL-17, IFN-γ and TNF-α was determined.
(§3) In a third experiment murine and human T cells and HaCaT cells were stimulated with PMA/Ionomycin and treated with Examples 14, 15, 16 and 17 at 10^−7 M, 10^−9 M and 10^−11 M. Cytokine concentrations (IFN-γ, IL-17 and IL-10 for T cells and IFN-γ for HaCat) were assessed in the supernatants using the Luminex technology. Expression of genes coding for Il-1β, IL-6 and TNF-α was determined. […] Moreover, concentrations of pro-inflammatory cytokines IFN-γ and IL-17 was reduced in the supernatants whereas the concentration of anti-inflammatory cytokine IL-10 was increased.

[2] = system: primary human T-cells; assay: Cytokine secretion on protein level in activated primary human T-cells (13-plex FACS / Luminex, supernatant); format: cell-based; settings: human T cells; PMA/Ionomycin; Luminex; all tested concentrations
In short: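 Primary T-cells from peripheral blood of healthy volunteers, or HaCaT cells, were activated with PMA/Ionomycin or IFN-γ for 48 h and treated with tripeptides. Supernatants were collected 48 h and 72 h after stimulation and cytokines (IL-1, IL-2, IL-6, IL-12p70, IL-17, IFN-γ, TNF-α) were measured by 13-plex FACS.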

[3] = system: Balb/c mice; assay: Imiquimod-induced psoriasis in mice; format: in vivo; settings: i.v.
Protocol: Psoriasis in Balb/c mice is induced by daily application of topical Imiquimod for 8 days. Animal are treated with the test items (topical or systemically). On day 9 the skin phenotype is characterized using a clinical score system (0=normal mouse skin; 1=mild reddening; 2=erythema; 3=erythema, swelling; 4=erythema, swelling, scaling; 5=erythema, swelling, scaling, (bloody) lesions). Skin is analyzed histologically. Lymph nodes are analyzed by flow cytometry and RT-qPCR. mRNA expression in lesional skin is analyzed by RT-qPCR. Cytokine concentrations in the serum are assessed using the Luminex technology.

[4] = system: primary murine T-cells; assay: Cytokine secretion on protein level in activated primary murine T-cells (13-plex FACS / Luminex, supernatant); format: cell-based, C57BL/6 mice; settings: murine T cells; PMA/Ionomycin; Luminex; all tested concentrations
In short: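 T-cells from secondary lymphatic organs of naïve C57BL/6 mice, stimulated with PMA/Ionomycin or IFN-γ; supernatant cytokines measured by 13-plex FACS 48 h and 72 h after stimulation. In another run, PMA/Ionomycin-stimulated cells received compounds at 10^−7, 10^−9 and 10^−11 M, with IFN-γ, IL-17 and IL-10 measured by Luminex.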

[5] = system: primary murine T cells; assay: Gene expression of pro-inflammatory cytokines (RT-qPCR) in primary murine T cells; format: cell-based, C57BL/6 mice; settings: PMA/Ionomycin, 10^−7 M, 10^−9 M and 10^−11 M
Description: as §1, §2, §3

[6] = system: human keratinocytes (HaCaT); assay: Gene expression of pro-inflammatory cytokines (RT-qPCR) in human keratinocytes (HaCaT); format: cell-based; settings: HaCaT cells; PMA/Ionomycin; 10^−7 M, 10^−9 M and 10^−11 M
Description: as §1, §2, §3

[7] = system: human keratinocyte cell line (HaCaT); assay: Cytokine secretion on protein level in activated human keratinocyte cell line HaCaT (13-plex FACS / Luminex, supernatant); format: cell-based; settings: HaCaT; PMA/Ionomycin; Luminex; all tested concentrations
In short: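 Stimulus: PMA/Ionomycin or IFN-γ, 48 h; cells: HaCaT or human peripheral-blood T-cells; tripeptide treatment; readout: supernatant cytokines via 13-plex FACS or Luminex, 48–72 h post-stimulation.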

In the case of H-[dF]-Pro-[Aib]-OH [Example 15], the “expression of pro-inflammatory cytokines IL-1β, IL-6 and TNF-α on mRNA level” value (shortened to “expression … on mRNA level”) [1] is reported as “reduced expression”, the “concentration of anti-inflammatory cytokine IL-10 in the supernatants” value [2] is reported as “increased” and the “concentrations of pro-inflammatory cytokines IFN-γ and IL-17 in the supernatants” value [2] is reported as “reduced”. The “concentrations of TNF-α and IL-17 in the serum” value [3] was “reduced”, the epidermal thickness [3] was “reduced” and the “mRNA expression of IFN-γ and IL-36 in lesional skin” value ([3]; compared to vehicle control) was “reduced”. For the same substance, the clinical score ([3]; day 9) was “reduced”, the “concentration of anti-inflammatory cytokine IL-10 in the supernatants” value [4] was “increased” and the “concentrations of pro-inflammatory cytokines IFN-γ and IL-17 in the supernatants” value [4] was “reduced”. The “expression … on mRNA level” value [5] was “reduced expression”, the “expression … on mRNA level” value [6] was “reduced expression” and the “concentration of pro-inflammatory cytokine IFN-γ in the supernatants” value [7] was “reduced”.
